Source: patent publication US20230055237A1, “COMPOUNDS AND METHODS FOR THE TREATMENT OF CYSTIC FIBROSIS” (Flatley Discovery Lab, LLC, priority 2019, published 2023)

Target: T1, CFTR (Homo sapiens, UniProt P13569, DEL508-508)
T1 construct: Primary CF airway epithelial cells were obtained from the UNC Cystic Fibrosis Tissue Procurement and Cell Culture Core; host or cells: primary CF airway epithelial cells, differentiated at the air-liquid interface
Experiment: Equivalent current assay in primary CF airway epithelial cells (NAUC, combination with 1st site corrector FDL169 or VX-809)
Assay type: cell-based
Conditions: 37° C., 24 h

[1] = test compound 1 μM in combination with 1st site corrector VX-809 (3 μM)
[2] = test compound 3 μM in combination with 1st site corrector VX-809 (3 μM)
[3] = test compound 10 μM in combination with 1st site corrector VX-809 (3 μM)
[4] = test compound 1 μM in combination with 1st site corrector FDL169 (3 μM)
[5] = test compound 3 μM in combination with 1st site corrector FDL169 (3 μM)

T1 sequence (P13569 with tags, fused parts or gaps DEL508-508): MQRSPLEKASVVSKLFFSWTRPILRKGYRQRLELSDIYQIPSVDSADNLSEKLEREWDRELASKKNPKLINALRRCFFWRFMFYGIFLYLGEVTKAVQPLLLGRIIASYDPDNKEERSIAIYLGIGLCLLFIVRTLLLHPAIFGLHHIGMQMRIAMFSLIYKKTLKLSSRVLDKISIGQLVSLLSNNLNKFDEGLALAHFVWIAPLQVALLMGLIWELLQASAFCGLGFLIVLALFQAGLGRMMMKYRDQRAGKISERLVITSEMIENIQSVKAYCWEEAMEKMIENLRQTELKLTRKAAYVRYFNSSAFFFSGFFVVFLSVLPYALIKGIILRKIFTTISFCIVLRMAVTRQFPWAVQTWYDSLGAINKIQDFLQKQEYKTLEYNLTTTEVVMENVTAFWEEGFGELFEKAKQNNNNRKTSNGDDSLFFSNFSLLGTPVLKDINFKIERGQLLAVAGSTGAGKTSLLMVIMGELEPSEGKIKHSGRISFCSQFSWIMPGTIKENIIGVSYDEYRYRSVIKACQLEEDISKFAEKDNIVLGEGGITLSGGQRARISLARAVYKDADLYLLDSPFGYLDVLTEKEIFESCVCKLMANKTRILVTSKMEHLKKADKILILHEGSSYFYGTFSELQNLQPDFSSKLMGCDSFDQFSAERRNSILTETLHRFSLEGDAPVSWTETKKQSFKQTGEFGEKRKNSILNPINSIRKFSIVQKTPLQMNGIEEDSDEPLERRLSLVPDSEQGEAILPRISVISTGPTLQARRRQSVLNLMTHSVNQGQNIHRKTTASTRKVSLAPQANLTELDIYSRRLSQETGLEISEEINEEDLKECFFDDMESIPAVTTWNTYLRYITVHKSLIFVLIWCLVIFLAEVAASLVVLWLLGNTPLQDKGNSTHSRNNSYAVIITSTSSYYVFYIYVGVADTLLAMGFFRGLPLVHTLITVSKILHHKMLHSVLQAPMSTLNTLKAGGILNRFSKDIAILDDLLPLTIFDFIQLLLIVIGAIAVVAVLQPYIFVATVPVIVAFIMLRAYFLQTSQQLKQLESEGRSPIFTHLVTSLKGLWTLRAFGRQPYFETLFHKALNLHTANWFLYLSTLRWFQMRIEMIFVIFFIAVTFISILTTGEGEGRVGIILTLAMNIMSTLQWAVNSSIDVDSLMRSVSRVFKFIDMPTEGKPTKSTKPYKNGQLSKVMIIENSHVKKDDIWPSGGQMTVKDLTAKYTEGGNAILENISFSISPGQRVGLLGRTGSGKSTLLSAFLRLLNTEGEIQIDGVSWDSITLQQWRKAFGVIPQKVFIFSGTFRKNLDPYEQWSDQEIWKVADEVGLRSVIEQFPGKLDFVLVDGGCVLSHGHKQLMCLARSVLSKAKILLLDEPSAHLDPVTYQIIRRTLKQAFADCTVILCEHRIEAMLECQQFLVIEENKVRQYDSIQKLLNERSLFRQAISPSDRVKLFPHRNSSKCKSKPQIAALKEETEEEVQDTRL

Compound | Nauc @ 1 μM [1] | Nauc @ 3 μM [2] | Nauc @ 10 μM [3] | Nauc @ 1 μM [4] | Nauc @ 3 μM [5] | Nauc @ 10 μM (test compound 10 μM in combination with 1st site corrector FDL169 (3 μM))
O=C(Nc1cc2ccccc2cn1)[C@H]1[C@H]2CC(F)(F)CN2[C@]2(C(=O)Nc3c(Cl)cc(Cl)cc32)[C@H]1C(=O)O [Example 119] | + (NAUC “+” refers to an observed NAUC <140% of positive control) | + (NAUC “+” refers to an observed NAUC <140% of positive control) | + (NAUC “+” refers to an observed NAUC <140% of positive control) |  |  | 
O=C(Nc1ccc2ncccc2c1)[C@H]1[C@H]2CC(F)(F)CN2[C@]2(C(=O)Nc3c(Cl)cc(Cl)cc32)[C@H]1C(=O)O [Example 120] | + (NAUC “+” refers to an observed NAUC <140% of positive control) | + (NAUC “+” refers to an observed NAUC <140% of positive control) | + (NAUC “+” refers to an observed NAUC <140% of positive control) |  |  | 
O=C(Nc1ccccc1-c1ccccc1)[C@H]1[C@H]2CC(F)(F)CN2[C@]2(C(=O)Nc3c(Cl)cc(Cl)cc32)[C@H]1C(=O)O [Example 121] | +++ (NAUC “+++” refers to an observed NAUC>170% of positive control) | +++ (NAUC “+++” refers to an observed NAUC>170% of positive control) | ++ (NAUC “++” refers to an observed NAUC 170-140% of positive control) |  |  | 
O=C(Nc1nccc2ccccc12)[C@H]1[C@H]2CC(F)(F)CN2[C@]2(C(=O)Nc3c(Cl)cc(Cl)cc32)[C@H]1C(=O)O [Example 122] | + (NAUC “+” refers to an observed NAUC <140% of positive control) | + (NAUC “+” refers to an observed NAUC <140% of positive control) |  |  |  | 
Cn1nc(NC(=O)[C@H]2[C@H]3CC(F)(F)CN3[C@]3(C(=O)Nc4c(Cl)cc(Cl)cc43)[C@H]2C(=O)O)c2cccnc21 [Example 123] | + (NAUC “+” refers to an observed NAUC <140% of positive control) | + (NAUC “+” refers to an observed NAUC <140% of positive control) |  |  |  | 
O=C(Nc1cccc(-c2ccccc2)c1)[C@H]1[C@H]2CC(F)(F)CN2[C@]2(C(=O)Nc3c(Cl)cc(Cl)cc32)[C@H]1C(=O)O [Example 124] | +++ (NAUC “+++” refers to an observed NAUC>170% of positive control) | +++ (NAUC “+++” refers to an observed NAUC>170% of positive control) |  |  |  | 
O=C(Nc1cccc2nccnc12)[C@H]1[C@H]2CC(F)(F)CN2[C@]2(C(=O)Nc3c(Cl)cc(Cl)cc32)[C@H]1C(=O)O [Example 126] | ++ (NAUC “++” refers to an observed NAUC 170-140% of positive control) | ++ (NAUC “++” refers to an observed NAUC 170-140% of positive control) |  |  |  | 
O=C(Nc1cccc2cccnc12)[C@H]1[C@H]2CC(F)(F)CN2[C@]2(C(=O)Nc3c(Cl)cc(Cl)cc32)[C@H]1C(=O)O [Example 127] | + (NAUC “+” refers to an observed NAUC <140% of positive control) | + (NAUC “+” refers to an observed NAUC <140% of positive control) |  |  |  | 
O=C(Nc1ccc2scnc2c1)[C@H]1[C@H]2CC(F)(F)CN2[C@]2(C(=O)Nc3c(Cl)cc(Cl)cc32)[C@H]1C(=O)O [Example 128] | + (NAUC “+” refers to an observed NAUC <140% of positive control) | + (NAUC “+” refers to an observed NAUC <140% of positive control) |  |  |  | 
O=C(Nc1cccc2c1OCCO2)[C@H]1[C@H]2CC(F)(F)CN2[C@]2(C(=O)Nc3c(Cl)cc(Cl)cc32)[C@H]1C(=O)O [Example 129] | + (NAUC “+” refers to an observed NAUC <140% of positive control) | + (NAUC “+” refers to an observed NAUC <140% of positive control) |  |  |  | 
O=C(Nc1n[nH]c2ccc(F)cc12)[C@H]1[C@H]2CC(F)(F)CN2[C@]2(C(=O)Nc3c(Cl)cc(Cl)cc32)[C@H]1C(=O)O [Example 130] | + (NAUC “+” refers to an observed NAUC <140% of positive control) | + (NAUC “+” refers to an observed NAUC <140% of positive control) |  |  |  | 
O=C(Nc1cccc2c1CCCC2)[C@H]1[C@H]2CC(F)(F)CN2[C@]2(C(=O)Nc3c(Cl)cc(Cl)cc32)[C@H]1C(=O)O [Example 131] | +++ (NAUC “+++” refers to an observed NAUC>170% of positive control) | +++ (NAUC “+++” refers to an observed NAUC>170% of positive control) |  |  |  | 
COCCN(C(=O)[C@H]1[C@H]2CC(F)(F)CN2[C@]2(C(=O)Nc3c(Cl)cc(Cl)cc32)[C@H]1C(=O)O)c1cc(Cl)cc(Cl)c1 [Example 132] | +++ (NAUC “+++” refers to an observed NAUC>170% of positive control) | +++ (NAUC “+++” refers to an observed NAUC>170% of positive control) | +++ (NAUC “+++” refers to an observed NAUC>170% of positive control) |  |  | 
COc1cc(C(F)(F)F)cc(N(C)C(=O)[C@H]2[C@H]3CC(F)(F)CN3[C@]3(C(=O)Nc4c(Cl)cc(Cl)cc43)[C@H]2C(=O)O)n1 [Example 133] | +++ (NAUC “+++” refers to an observed NAUC>170% of positive control) | +++ (NAUC “+++” refers to an observed NAUC>170% of positive control) | +++ (NAUC “+++” refers to an observed NAUC>170% of positive control) |  |  | 
O=C(Nc1cnc(-c2ccccc2)cn1)[C@H]1[C@H]2CC(F)(F)CN2[C@]2(C(=O)Nc3c(Cl)cc(Cl)cc32)[C@H]1C(=O)O [Example 134] | + (NAUC “+” refers to an observed NAUC <140% of positive control) | + (NAUC “+” refers to an observed NAUC <140% of positive control) |  |  |  | 
O=C(Nc1nccc2cccnc12)[C@H]1[C@H]2CC(F)(F)CN2[C@]2(C(=O)Nc3c(Cl)cc(Cl)cc32)[C@H]1C(=O)O [Example 135] | + (NAUC “+” refers to an observed NAUC <140% of positive control) | + (NAUC “+” refers to an observed NAUC <140% of positive control) | + (NAUC “+” refers to an observed NAUC <140% of positive control) |  |  | 
Cn1ccc2ccc(NC(=O)[C@H]3[C@H]4CC(F)(F)CN4[C@]4(C(=O)Nc5c(Cl)cc(Cl)cc54)[C@H]3C(=O)O)cc21 [Example 136] |  |  |  | + (NAUC “+” refers to an observed NAUC <140% of positive control) | + (NAUC “+” refers to an observed NAUC <140% of positive control) | 
Cn1ccc2cc(NC(=O)[C@H]3[C@H]4CC(F)(F)CN4[C@]4(C(=O)Nc5c(Cl)cc(Cl)cc54)[C@H]3C(=O)O)ccc21 [Example 137] |  |  |  | + (NAUC “+” refers to an observed NAUC <140% of positive control) | + (NAUC “+” refers to an observed NAUC <140% of positive control) | 
Cn1ncc2cc(NC(=O)[C@H]3[C@H]4CC(F)(F)CN4[C@]4(C(=O)Nc5c(Cl)cc(Cl)cc54)[C@H]3C(=O)O)ccc21 [Example 138] |  |  |  | + (NAUC “+” refers to an observed NAUC <140% of positive control) | + (NAUC “+” refers to an observed NAUC <140% of positive control) | 
Cn1c(NC(=O)[C@H]2[C@H]3CC(F)(F)CN3[C@]3(C(=O)Nc4c(Cl)cc(Cl)cc43)[C@H]2C(=O)O)nc2ccccc21 [Example 139] |  |  |  | + (NAUC “+” refers to an observed NAUC <140% of positive control) | + (NAUC “+” refers to an observed NAUC <140% of positive control) | 
O=C(Nc1ccc2ncncc2c1)[C@H]1[C@H]2CC(F)(F)CN2[C@]2(C(=O)Nc3c(Cl)cc(Cl)cc32)[C@H]1C(=O)O [Example 140] |  |  |  | + (NAUC “+” refers to an observed NAUC <140% of positive control) | + (NAUC “+” refers to an observed NAUC <140% of positive control) | 
Cn1ccc2c(NC(=O)[C@H]3[C@H]4CC(F)(F)CN4[C@]4(C(=O)Nc5c(Cl)cc(Cl)cc54)[C@H]3C(=O)O)cccc21 [Example 141] |  |  |  | + (NAUC “+” refers to an observed NAUC <140% of positive control) | + (NAUC “+” refers to an observed NAUC <140% of positive control) | 
Cn1cnc(NC(=O)[C@H]2[C@H]3CC(F)(F)CN3[C@]3(C(=O)Nc4c(Cl)cc(Cl)cc43)[C@H]2C(=O)O)c1 [Example 142] |  |  |  | + (NAUC “+” refers to an observed NAUC <140% of positive control) | + (NAUC “+” refers to an observed NAUC <140% of positive control) | 
Cn1cc2cc(NC(=O)[C@H]3[C@H]4CC(F)(F)CN4[C@]4(C(=O)Nc5c(Cl)cc(Cl)cc54)[C@H]3C(=O)O)ccc2n1 [Example 143] |  |  |  | + (NAUC “+” refers to an observed NAUC <140% of positive control) | + (NAUC “+” refers to an observed NAUC <140% of positive control) | 
O=C(Nc1ncnc2ccccc12)[C@H]1[C@H]2CC(F)(F)CN2[C@]2(C(=O)Nc3c(Cl)cc(Cl)cc32)[C@H]1C(=O)O [Example 144] |  |  |  | + (NAUC “+” refers to an observed NAUC <140% of positive control) | + (NAUC “+” refers to an observed NAUC <140% of positive control) | 
O=C(O)[C@H]1[C@@H](C(=O)N(CC2CCCC2)c2cc(Cl)cc(Cl)c2)[C@H]2CC(F)(F)CN2[C@]12C(=O)Nc1c(Cl)cc(Cl)cc12 [Example 145] |  |  |  | +++ (NAUC “+++” refers to an observed NAUC>170% of positive control) | +++ (NAUC “+++” refers to an observed NAUC>170% of positive control) | +++ (NAUC “+++” refers to an observed NAUC>170% of positive control)
Cn1cnc2cc(NC(=O)[C@H]3[C@H]4CC(F)(F)CN4[C@]4(C(=O)Nc5c(Cl)cc(Cl)cc54)[C@H]3C(=O)O)ccc21 [Example 146] |  |  |  | + (NAUC “+” refers to an observed NAUC <140% of positive control) | + (NAUC “+” refers to an observed NAUC <140% of positive control) | 
